# Where two headings read alike, the source gives them in different places.
# What was measured:
# Mite [1] = details: in vivo
# Aphid [2] = details: 48 h, 1 mL or g/L
# Aphid [3] = assay: whole plant or invertebrate; details: 48 h
# Thrips [4] = assay: whole plant or invertebrate; details: in Gossypium hirsutum, 48 h
# Mite [5] = details: in vivo; remark: listed apart in the source
# Spodoptera litura [6] = assay: whole plant or invertebrate; details: 72 h
# [7] = cited from earlier work; for Phytotonic Effect: Table 13, effect on plants, descriptive
# tomato seedlings = assay: Response of tomato plants, greenhouse growth (Ex. 30); type: in vivo; details: for CCI 5th Day / Plant Height 5th Day / Stem Girth 5th Day: 120 h; for CCI 10th Day / Plant Height 10th Day / Root Length % Increase over control / Stem Girth 10th Day: 240 h; for Plant Height % Increase over pre on 10th Day / Stem Girth % Increase over pre on 10th Day / CCI % Increase over pre on 10th Day / Root Length (cm) 10th Day: tomato seedlings, dose 1 ml/gm/lit
# Alternaria alternata = assay: In vitro poisoned food technique against fungus (Ex. 20); type: cell-based; details: […]
# chili seedlings = assay: Response of chili plants, greenhouse growth (Ex. 31); type: in vivo; details: for CCI 5th Day / Plant Height (cm) 5th Day: 120 h; for CCI 10th Day / Plant Height (cm) 10th Day / Root Lenght % Increase over control: 240 h; for CCI % Increase over pre on 10th Day / Plant Height % Increase over pre on 10th Day / Root Lenght (cm) 10th Day / Stem Girth % Increase over pre on 10th Day: chili seedlings, dose 1 ml/gm/lit
# Spodoptera litura [8] = system: Spodoptera litura
# Aphid [9] = system: Aphid
# Spodoptera litura [10] = details: in vivo
# Thrips [11] = system: Thrips
# Thrips [12] = details: 48 h, 1 mL or g/L
# Helicoverpa armigera [13] = details: in vivo
# Helicoverpa armigera [14] = details: in vivo; remark: listed apart in the source
# [15] = read-out: % Corrected Mortality at 48 Hrs.
# [16] = read-out: % Mortality at 48 Hrs.
# [17] = read-out: % Corrected Mortality at 72 Hrs.
# [18] = read-out: % Mortality at 72 Hrs.
# [19] = Table 13, descriptive, no test described
structure (smiles),measurement,setting,value
CC(C)=CCCC(C)=CC=O [Citral],% Mortality at 48 Hrs.,Mite [1],55.00%
same,Total No. of dead insect at 48 Hrs.,Aphid [2],70.00
same,mortality at 1 mL or g/L,Aphid [3]; [15],64.7%
same,mortality at 1 mL or g/L,Aphid [3]; [16],70%
same,mortality at 1 mL or g/L,Thrips [4]; [15],51.4%
same,mortality at 1 mL or g/L,Thrips [4]; [16],57.5%
same,% Mortality at 48 Hrs.,Mite [5],55.00%
same,mortality at 1 mL or g/L,Spodoptera litura [6]; [17],52.6%
same,mortality at 1 mL or g/L,Spodoptera litura [6]; [18],55%
same,Acaricidal Activity - Mode of action,[7]; [19],Repelling and killing
same,Antifungal Activity - Mode of action,[7]; [19],Inhibited the mycelial
same,Antioxidant Activity - Mode of action,[7]; [19],Induced the overexpression
same,Bactericidal Activity - Mode of action,[7]; [19],High mortality against
same,Insecticidal Activities - Mode of action,[7]; [19],Repellent and Antifeedant
same,Nematicidal Activity - Mode of action,[7]; [19],Strong Nematicidal activity
same,Virucidal Activity - Mode of action,[7]; [19],Increases plant disease
same,Phytotonic Effect,[7],Trigger
same,CCI Pre,tomato seedlings,11.20
same,Plant Height Pre,tomato seedlings,6.11 cm
same,Stem Girth Pre,tomato seedlings,1.35 mm
same,CCI 5th Day,tomato seedlings,13.34
same,Plant Height 5th Day,tomato seedlings,7.15 cm
same,Stem Girth 5th Day,tomato seedlings,1.46 mm
same,CCI 10th Day,tomato seedlings,14.25
same,Plant Height 10th Day,tomato seedlings,7.85 cm
same,Root Length % Increase over control,tomato seedlings,25.08%
same,Stem Girth 10th Day,tomato seedlings,2.12 mm
same,Plant Height % Increase over pre on 10th Day,tomato seedlings,28.48%
same,Stem Girth % Increase over pre on 10th Day,tomato seedlings,56.50%
same,CCI % Increase over pre on 10th Day,tomato seedlings,27.23%
same,Root Length (cm) 10th Day,tomato seedlings,4.16 cm
same,inhibition of growth at 1 mL or g/L,Alternaria alternata,48.3%
same,CCI Pre,chili seedlings,8.60
same,Plant Height (cm) Pre,chili seedlings,4.47 cm
same,CCI 5th Day,chili seedlings,11.02
same,Plant Height (cm) 5th Day,chili seedlings,6.30 cm
same,CCI 10th Day,chili seedlings,12.02
same,Plant Height (cm) 10th Day,chili seedlings,6.79 cm
same,Root Lenght % Increase over control,chili seedlings,14.22%
same,CCI % Increase over pre on 10th Day,chili seedlings,39.77%
same,Plant Height % Increase over pre on 10th Day,chili seedlings,52.01%
same,Root Lenght (cm) 10th Day,chili seedlings,3.13 cm
same,Stem Girth % Increase over pre on 10th Day,chili seedlings,38.62%
same,Total No. of dead insect at 72 Hrs.,"Spodoptera litura [8]; 72 h, 1 mL or g/L",5.50
same,Total No. of dead insect at 48 Hrs.,Aphid [9],6.50
same,% Corrected Mortality at 48 Hrs.,Aphid [9]; in vivo,60.00%
same,% Mortality at 48 Hrs.,Aphid [9]; in vivo,65.00%
same,% Corrected Mortality at 72 Hrs.,Spodoptera litura [10],50.00%
same,% Mortality at 72 Hrs.,Spodoptera litura [10],52.50%
same,Total No. of dead insect at 48 Hrs.,Thrips [11],57.50
same,% Corrected Mortality at 48 Hrs.,Thrips [11]; in vivo,52.78%
same,Total No. of dead insect at 48 Hrs.,Thrips [12],5.75
Cc1ccc(C(C)C)cc1 [p-Cymene],Total No. of dead insect at 48 Hrs.,Aphid [2],60.00
same,mortality at 1 mL or g/L,Aphid [3]; [15],52.9%
same,mortality at 1 mL or g/L,Aphid [3]; [16],60%
same,mortality at 1 mL or g/L,Thrips [4]; [15],54.3%
same,mortality at 1 mL or g/L,Thrips [4]; [16],60%
same,mortality at 1 mL or g/L,Spodoptera litura [6]; [17],71%
same,mortality at 1 mL or g/L,Spodoptera litura [6]; [18],72.5%
same,% Corrected Mortality at 72 Hrs.,Helicoverpa armigera [13],65.00%
same,% Mortality at 72 Hrs.,Helicoverpa armigera [13],65.00%
same,Acaricidal Activity - Mode of action,[7]; [19],Showed mortality against
same,Bactericidal Activity - Mode of action,[7]; [19],Strong anti-bacterial
same,Insecticidal Activities - Mode of action,[7]; [19],High mortality against
same,Nematicidal Activity - Mode of action,[7]; [19],Effective in reducing
same,Phytotonic Effect,[7],Trigger plant
same,CCI Pre,tomato seedlings,12.58
same,Plant Height Pre,tomato seedlings,6.12 cm
same,Stem Girth Pre,tomato seedlings,1.35 mm
same,CCI 5th Day,tomato seedlings,14.52
same,Plant Height 5th Day,tomato seedlings,7.24 cm
same,Stem Girth 5th Day,tomato seedlings,1.82 mm
same,CCI 10th Day,tomato seedlings,15.68
same,Plant Height 10th Day,tomato seedlings,7.84 cm
same,Root Length % Increase over control,tomato seedlings,21.38%
same,Stem Girth 10th Day,tomato seedlings,2.06 mm
same,Plant Height % Increase over pre on 10th Day,tomato seedlings,28.10%
same,Stem Girth % Increase over pre on 10th Day,tomato seedlings,52.59%
same,CCI % Increase over pre on 10th Day,tomato seedlings,24.64%
same,Root Length (cm) 10th Day,tomato seedlings,4.04 cm
same,inhibition of growth at 1 mL or g/L,Alternaria alternata,34.1%
same,% Corrected Mortality at 72 Hrs.,Helicoverpa armigera [14],65.00%
same,% Mortality at 72 Hrs.,Helicoverpa armigera [14],65.00%
same,CCI Pre,chili seedlings,9.30
same,Plant Height (cm) Pre,chili seedlings,4.29 cm
same,CCI 5th Day,chili seedlings,11.47
same,Plant Height (cm) 5th Day,chili seedlings,6.13 cm
same,CCI 10th Day,chili seedlings,13.48
same,Plant Height (cm) 10th Day,chili seedlings,6.48 cm
same,Root Lenght % Increase over control,chili seedlings,15.10%
same,CCI % Increase over pre on 10th Day,chili seedlings,44.95%
same,Plant Height % Increase over pre on 10th Day,chili seedlings,51.05%
same,Root Lenght (cm) 10th Day,chili seedlings,3.15 cm
same,Stem Girth % Increase over pre on 10th Day,chili seedlings,40.29%
same,Total No. of dead insect at 72 Hrs.,"Spodoptera litura [8]; Spodoptera litura on castor leaves, dose 1 ml/gm/lit., 10 insects/treatment, 72 hrs after application",7.25
same,Total No. of dead insect at 48 Hrs.,Aphid [9],6.00
same,% Corrected Mortality at 48 Hrs.,Aphid [9]; in vivo,54.29%
same,% Corrected Mortality at 72 Hrs.,Spodoptera litura [10],68.42%
same,% Mortality at 72 Hrs.,Spodoptera litura [10],70.00%
same,Total No. of dead insect at 48 Hrs.,Thrips [11],57.50
same,% Corrected Mortality at 48 Hrs.,Thrips [11]; in vivo,52.78%
same,% Mortality at 48 Hrs.,Thrips [11]; in vivo,57.50%
same,Total No. of dead insect at 48 Hrs.,Thrips [12],6.00
